Results from article PMC11763059, “GENI as an AMPK Activator Binds α and γ Subunits and Improves the Memory Dysfunction of Alzheimer’s Disease Mouse Models via Autophagy and Neuroprotection” (Antioxidants, 2025).

Legend:
p53 = system: T1, p53; assay: Drug affinity responsive target stability (DARTS), p53; format: binding; details: 0.1–100 μM GENI, protein: pronase 100:1
T1 construct: endogenous in cells
Protocol: (§1) Cells were lysed by RIPA lysis buffer, and the protein concentration was measured. The lysate was divided into six groups. Before incubation with protease (protein: pronase = 50:1 w/w for PI3K and AMPK detection, 5:1 for MAPK detection, 100:1 for p53 detection) for 25 min in 25 °C, 0.1–100 μM GENI was added to lysates and incubated for 2 h at room temperature. The samples were mixed with loading buffer and then separated on 8% SDS-PAGE for immunoblotting analysis.

MAPK = assay: Drug affinity responsive target stability (DARTS), MAPK; format: binding; details: 0.1–100 μM GENI, protein: pronase 5:1
Protocol: as §1

AMPK = assay: Drug affinity responsive target stability (DARTS), AMPK; format: binding; details: 0.1–100 μM GENI, protein: pronase 50:1
Protocol: as §1

PC12 cells [1] = assay: ROS assay (DCFH-DA) in PC12 cells; format: cell-based; details: GENI 1, 3 and 10 μM 24 h, 0.8 mM H2O2 1 h
Protocol: To determine ROS levels in PC12 cells, we seeded 5 × 10^4 PC12 cells in each well of a 24-well plate. Cells were treated with RES (10 μM) or GENI (1, 3, and 10 μM) for 24 h, followed by 0.8 mM H2O2 for 1 h. DCFH-DA (2,7-dichlorodihydrofluorescein diacetate, final concentration, 10 μM) was then added to each well and incubated for 30 min. Cells were washed with PBS to remove extracellular DCFH-DA, and intercellular ROS was detected by using a SpectraMax M3 multimode microplate reader (Molecular Devices Corporation, San Jose, CA, USA) at an excitation wavelength of 488 nm and an emission wavelength of 525 nm. Meanwhile, DCF in PC12 cells was observed using a fluorescence microscope (HCS, Thermo Fisher, Science, Waltham, MA, USA). To detect malondialdehyde (MDA) content and total SOD enzymatic activities in PC12 cells, we seeded 2 × 10^6 PC12 cells in 60 mm dishes containing 5 mL of DMEM and cultured the cells for 24 h. PC12 cells were treated with RES (10 μM) or GENI (3 or 10 μM) for 24 h and then treated with 0.8 mM H2O2 for 1 h to determine the MDA content and total superoxide dismutase (SOD) activities. Cells were lysed and centrifuged. […] MDA quantification and total SOD activities were determined using MDA and SOD enzyme activity assay kits (Nanjing Jiancheng Bioengineering Institute, Nanjing, China) following the manufacturer’s instructions.

PC12 cells [2] = assay: Autophagy flow assay (CYTO-ID) in PC12 cells; format: cell-based
Protocol: The experiment was carried out according to the instructions of the CYTO-ID autophagy detection kit (Enzo Biochem, New York, NY, USA). In brief, we seeded 7.5 × 10^4 PC12 cells in each well of a 24-well plate using the cell slide method. The cells were incubated for 24 h at 37 °C in a 5% CO2 incubator. The experiment was divided into control (0.5% DMSO), positive control rapamycin (Rap 500 nM + chloroquine (CQ)), GENI treated-group (10 μM GENI + 10 μM CQ), 3-MA inhibitor group (5 mM 3-MA + 10 μM CQ) and GENI + 3MA group (5 mM 3-MA + 10 μM GENI + 10 μM CQ). The optimum concentration of 3MA inhibitor was referenced in the other report. At first, 0.5 mL of serum-free DMEM (plus 1% dual anti-penicillin–streptomycin) containing 3-MA (5 mM) was used to replace the medium in two groups as well as 0.5 mL of serum-free DMEM was added in the other groups, respectively. After treating for 6 h, 0.5 mL of DMEM containing DMSO (0.5%), Rap (500 nM) + CQ (10 μM), GENI (10 μM) + CQ (10 μM), CQ (10 μM), and GENI (10 μM) + CQ (10 μM) was added into the corresponding group, respectively. After 18 h, we removed the medium and washed cells twice with 1× assay buffer containing 5% FBS. We then added CYTO-ID Green detection reagent and Hocchst 33342 nuclear stain to the cells, which were incubated at 37 °C for 45 min. After three washes with 1× assay buffer, we fixed cells with 4% paraformaldehyde for 20 min. After three washes with 1× assay buffer, we observed the cells with an upright two-photon confocal microscope (Olympus FV1000BX-51, Tokyo, Japan).

BV-2 cells = assay: IL-6 ELISA and NO assay in BV-2 cell culture supernatant; format: cell-based, murine; details: LPS 1 μg/mL
Protocol: ELISA analysis for NO and interleukin-6 (IL-6) was performed according to the manufacturer described in the material and methods section in Supplementary Information. […]
for 15 seconds, 68 ℃ for 20 seconds. All results were normalized to GAPDH RNA levels, and relative mRNA transcript levels were calculated using the ΔΔCt formula.
1.2. Enzyme-linked immunosorbent assay
BV-2 cells were treated with LPS (1 μg/mL) in the absence or presence of GENI (1, 3 and 10 μM). The cell supernatant was collected at different time points for proinflammatory mediator assay (8 h for IL-6 and 24 h for NO). NO production was quantified using an NO assay kit (S0021S, Beyotime, China), and IL-6 was detected using commercial ELISA kits (EM004, ExCell, China) according to the manufacturer’s instructions.
For NO content evaluation, firstly, the NO assay kit was removed, and Griess Reagents I and II were warmed to room temperature. The standard substance was diluted with cell culture solution to 0, 1, 2, 5, 10, 20, 40, 60 and 100 μM. […] The absorbance was determined with a microplate reader (BioTek, California, USA) at 540 nm. […]
15.625 and 0 pg/mL for use, and blank holes were set. […] About 100 μL of termination solution was added to each hole, and we measured the OD450 value immediately after mixing with a microplate reader (BioTek, California, USA).

Compound: CC(C)CCOC(=O)C1=CO[C@@H](O[C@@H]2O[C@H](CO)[C@@H](O)[C@H](O)[C@H]2O)C2C(CO)=CCC12 (some centres unmarked) [GENI, Geniposidic 4-isoamyl ester]
- stability of p53 against pronase (DARTS) (p53): no obvious effect
- stability of MAPK against pronase (DARTS) (MAPK): dramatically enhanced the stability
- stability of AMPK against pronase (DARTS) (AMPK): dramatically enhanced the stability
- H2O2-induced increase in ROS (PC12 cells [1]): significantly reduce
- fluorescence intensity of autophagosomes (PC12 cells [2]; 10 μM GENI + 10 μM CQ, compared with the control group): significantly increased
- autophagy effect relative to positive control Rap at 500 nM (PC12 cells [2]; GENI at 10 μM): comparable
- secretion of LPS-stimulated pro-inflammatory IL-6 (BV-2 cells; 8 h): significantly reduced
- production of NO (BV-2 cells; 24 h): significantly reduced
